Data on 8 compounds can be found in US6440963B1, “Use of selective COX-2 inhibitors for the treatment of urinary incontinence” (Recordati S.A., Chemical and Pharmaceutical Company, priority 2001, dated 2002).

Data set [1] deals with rhythmic bladder voiding contractions. Description: Volume-induced rhythmic bladder voiding contractions in anaesthetized rats. It counts as in vivo, rat. The conditions noted are these: for Bladder quiescence (min ± S.E.): 60 min observation; for ED10 min (dose inducing a 10 min absence of bladder contractions) / Potency in inhibiting bladder voiding contractions (ED10min) compared with morphine: i.v.; for ED10 min (dose inducing a 10 min absence of bladder contractions): linear regression analysis; for Potency in inhibiting bladder voiding contractions (ED10min) compared with morphine: relative to morphine.
Protocol: In this method, the urinary bladder is catheterized through the external urethra with a polyethylene tubing filled with physiological saline. The external urethra is then ligated and connected to a pressure recording device. […] Test compounds are then administered intravenously and their effect evaluated for the following 60 min.
The animals were housed with free access to food and water and maintained on a 12 h alternating light-dark cycle at 22-24° C. for at least one week, except during the experiment. […] The catheter was then tied in place with a ligature around the external urethral orifice and connected to a conventional pressure transducer (Statham P23 ID/P23 XL). […] The bladder was then filled via the recording catheter with incremental volumes of warm (37° C.) saline until reflex bladder voiding contractions occurred (usually upon addition of 0.8-1.5 ml saline).
Bioactivity was assessed in individual animals (using 6-10 rats per dose) by measuring the duration of bladder quiescence (i.e., the duration of time during which no contractions occurred) over a 60 min period.

Data set [2] relates to detrusor instability. The settings on record: cited from earlier work; for Effect in patients with detrusor instability: double-blind controlled studies; for Gastrointestinal side effects: patients with detrusor instability.
For data set [3], the system named is bladder reflexes. The settings on record: following surgery or experimentally-induced inflammation; cited from earlier work.
For data set [4], the system named is bladder contractions elicited by arachidonic acid. The conditions noted are these: arachidonic acid on serosal surface of bladder; cited from earlier work.
Data set [5] has as its system isolated rat bladder strips. The conditions noted are these: 1×10^−4M, 40 mM potassium; cited from earlier work.

The structures appear in SMILES notation.

Regarding `Cc1ccc(-c2cc(C(F)(F)F)nn2-c2ccc(S(N)(=O)=O)cc2)cc1` [Compound B], the “Bladder quiescence (min ± S.E.)” value in data set [1] (0.01 mg/kg i.v.) was 4.05 ± 0.68 min; in data set [1] (0.1 mg/kg i.v.) it was 10.53 ± 2.04 min; in data set [1] (1.0 mg/kg i.v.) it was 28.35 ± 5.19 min. Besides, the “ED10 min (dose inducing a 10 min absence of bladder contractions)” value (“ED10 min” for short) in data set [1] is recorded as “ED10 min = 0.044 mg/kg”. Moreover, the “Potency in inhibiting bladder voiding contractions (ED10min) compared with morphine” value in data set [1] was “similar”.

With `CS(=O)(=O)c1ccc(C2=C(c3ccccc3)C(=O)OC2)cc1` [Compound C], the “Bladder quiescence (min ± S.E.)” value in data set [1] (0.03 mg/kg i.v.) worked out at 3.75 ± 0.96 min; in data set [1] (0.1 mg/kg i.v.), 4.85 ± 1.80 min; in data set [1] (0.3 mg/kg i.v.) it was 16.44 ± 6.13 min. In data set [1], the “ED10 min” value is recorded as “ED10 min = 0.135 mg/kg”. The “Potency in inhibiting bladder voiding contractions (ED10min) compared with morphine” value in data set [1] is recorded as “slightly lower”.

On to `COc1ccc2c(c1)c(CC(=O)O)c(C)n2C(=O)c1ccc(Cl)cc1` [Indomethacin], for which the results for the “Bladder quiescence (min ± S.E.)” value in data set [1] (0.3 mg/kg i.v.), in data set [1] (1.0 mg/kg i.v.) and in data set [1] (3.0 mg/kg i.v.) were 4.39 ± 1.08 min, 7.91 ± 1.79 min and 35.00 ± 5.78 min, respectively. Besides, in data set [1], the “ED10 min” value is listed as “ED10 min = 0.652 mg/kg”. For the same compound, the “Effect in patients with detrusor instability” value in data set [2] was “favorable effects”. In addition, the Gastrointestinal side effects result in data set [2] is “high incidence of gastrointestinal side effects”.

As to `CN1CC[C@]23c4c5ccc(O)c4O[C@H]2[C@@H](O)C=C[C@H]3[C@H]1C5` [Morphine], the “Bladder quiescence (min ± S.E.)” value in data set [1] (0.01 mg/kg i.v.) was found to be 2.76 ± 0.93 min; in data set [1] (0.03 mg/kg i.v.) it was 6.89 ± 2.11 min; in data set [1] (0.1 mg/kg i.v.), 13.83 ± 2.40 min; in data set [1] (0.3 mg/kg i.v.), 18.17 ± 3.60 min. In addition, in data set [1], the “ED10 min” value is reported as “ED10 min = 0.050 mg/kg”.

On to `CS(=O)(=O)Nc1ccc([N+](=O)[O-])cc1OC1CCCCC1` [NS-398], for which the “Effect on bladder reflexes” value in data set [3] was “normalized bladder reflexes”.

Regarding `C[C@H](C(=O)O)c1cccc(C(=O)c2ccccc2)c1` [dexketoprofen], the “Effect on bladder contractions elicited by arachidonic acid” value in data set [4] is recorded as “blocked”.

`CC(C(=O)O)c1ccc(-c2ccccc2)c(F)c1` (centres unmarked) [flurbiprofen]: in data set [2], the “Effect in patients with detrusor instability” value is “favorable effects” and the Gastrointestinal side effects entry is “high incidence of gastrointestinal side effects”.

Regarding `CS(=O)(=O)Nc1ccc([N+](=O)[O-])cc1Oc1ccccc1` [nimesulide], in data set [5], the Inhibition of contractility is recorded as 42%.
